From PubChem BioAssay (NCI)
Several values for one entry are separate records, joined by “and”; a condition that tells them apart may be missing. Equal values may be shown once.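 Protocol summary: plate cells (96-well), add compound at 5 concentrations, incubate 48 h, interpolate endpoints linearly. The concentration for 50% growth inhibition is given as GI50. TGI is the concentration that stops growth completely.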

Key:
Experiment in all cases: growth of human tumour cells (NCI), 48 h
[1] = test system: NCI-H522 lung
[2] = test system: SK-OV-3 ovarian
[3] = test system: 786-0 renal
[4] = test system: CCRF-CEM leukemia
[5] = test system: IGROV1 ovarian
[6] = test system: UO-31 renal
[7] = test system: UACC-257 melanoma
[8] = test system: EKVX NSCLC
[9] = test system: SF-268 CNS
[10] = test system: TK-10 renal

Structure (SMILES) | GI50 [1] | TGI [1] | GI50 [2] | TGI [2] | GI50 [3] | TGI [3] | GI50 [4] | TGI [4] | GI50 [5] | TGI [5] | GI50 [6] | TGI [6] | GI50 [7] | TGI [7] | GI50 [8] | TGI [8] | GI50 [9] | TGI [9] | GI50 [10] | TGI [10]
C=CC(=O)N1CCC([C@@H]2CCNc3c(C(N)=O)c(-c4ccc(Oc5ccccc5)cc4)nn32)CC1 | 3.06 µM | 20.3 µM | 0.338 µM | 14.2 µM | 12.9 µM | 53.1 µM | 19.4 µM | > 73.2 µM | 0.912 µM | 16.7 µM | 2.96 µM | > 66.4 µM | 16.5 µM | 50.4 µM | 2.35 µM | > 100 µM | 9.07 µM | 34.4 µM | 0.385 µM | 7.77 µM
COc1cc2ccnc(-c3c4ccccc4c(N)c4c(OC)c(OC)ccc34)c2cc1OC |  | 15.9 µM |  | 20.4 µM |  | 11.5 µM |  | 14.2 µM |  | 14.5 µM |  | 13.5 µM |  | 4.37 µM |  | 24.2 µM |  | 18.6 µM |  | 22.2 µM
ICCC(c1ccccc1)(c1ccccc1)c1ccccc1 | 8.35 µM | 22.7 µM | 14.7 µM | 27.8 µM | 3.75 µM | 14.1 µM | 3.56 µM | 16.3 µM | 4.17 µM | 16.6 µM | 1.72 µM | 9.87 µM | 1.7 µM | 3.35 µM | 6.96 µM | 23.2 µM | 4.4 µM | 16.8 µM | 14 µM | 30.7 µM
C[C@]12CCC3c4ccc(O)cc4CCC3C1Cc1ccc(O)cc12 (stereo partly specified) | 3.5 µM | 12.8 µM | 14.3 µM | 36.4 µM | 5.22 µM | 18.1 µM | 4.14 µM | 17.2 µM | 9.72 µM | 26.1 µM | 11.8 µM | 28.7 µM | 14.4 µM | 28.5 µM | 6.24 µM | 18.9 µM | 11.4 µM | 44.2 µM | 13.6 µM | 40.2 µM
COc1cc2c(c(OC)c1OC)-c1ccc(SC)c(=O)cc1[C@@H](NCc1cccc(C#N)c1)CC2 | < 0.0075 µM | 0.0377 µM and < 0.0075 µM | < 0.0075 µM |  | < 0.0075 µM | 20.9 µM | < 0.0075 µM | 6.16 µM | < 0.0075 µM | > 75 µM | < 0.0075 µM | > 75 µM | 6.18 µM | > 75 µM | < 0.0075 µM | > 75 µM | < 0.0075 µM |  | 16.2 µM | > 75 µM
CC(=O)OCC1OC(n2c(=O)n(-c3ccccc3)c(=O)c3cc(Br)cc(Br)c32)C(OC(C)=O)C(OC(C)=O)C1OC(C)=O (stereo unspecified) |  | > 100 µM |  | > 100 µM |  | > 100 µM |  | > 100 µM |  | > 100 µM |  | > 100 µM |  | > 100 µM |  | > 100 µM |  | > 100 µM |  | > 100 µM
CO[C@H]1C[C@@H]2CC[C@@H](C)[C@@](O)(O2)C(=O)C(=O)N2CCCC[C@H]2C(=O)O[C@H]([C@H](C)C[C@@H]2CC[C@@H](OP(C)(C)=O)[C@H](OC)C2)CC(=O)[C@H](C)/C=C(\C)[C@@H](O)[C@@H](OC)C(=O)[C@H](C)C[C@H](C)/C=C/C=C/C=C/1C |  | 19.9 µM | 0.557 µM | 21.7 µM | 8.92 µM | 22.7 µM | 8.17 µM | 52.4 µM | < 0.01 µM | 18.3 µM | < 0.01 µM | 16.1 µM | 3.21 µM | 21.8 µM | < 0.01 µM | 18.5 µM | 10.9 µM | 23.6 µM |  | 22.3 µM
Cc1nc(-c2nc(C)c(C(=O)NN(C)C)s2)sc1C(=O)NN(C)C |  | > 100 µM |  | > 100 µM |  | > 100 µM |  | > 100 µM |  | > 100 µM |  | > 100 µM |  | > 100 µM |  | > 100 µM |  | > 100 µM |  | > 100 µM
CC[C@H](C)[C@H](NC(=O)Nc1ccccc1)C(=O)N(C)[C@H](C[C@@H](OC(C)=O)c1nc(C(=O)N[C@@H](Cc2ccccc2)C[C@H](C)C(=O)OC)cs1)C(C)C | 1.5 µM | 21.1 µM | 5.13 µM | > 100 µM | 3.56 µM | > 100 µM | 2.25 µM | > 100 µM | 3.28 µM | > 100 µM | 6.82 µM | > 100 µM | > 100 µM | > 100 µM | 5.36 µM | > 100 µM | 5.13 µM | > 100 µM | 9.56 µM | > 100 µM
Cc1ccccc1-c1c(N)nc(N)nc1C(=O)Nc1nccs1 |  | > 100 µM |  | > 100 µM |  | > 100 µM |  | > 100 µM |  | > 100 µM |  | > 100 µM |  | > 100 µM |  | > 100 µM |  | > 100 µM |  | > 100 µM
O=C(O)c1ccc(NCc2nc3cc4ccccc4cc3[nH]2)cc1 |  | > 100 µM |  | > 100 µM |  | > 100 µM |  | > 100 µM |  | > 100 µM |  | > 100 µM |  | 25.9 µM |  | > 100 µM |  | > 100 µM |  | > 100 µM
CCC1(C(=O)OC)CCc2c(OC)ccc(OC)c2C1=O (stereo unspecified) |  | > 100 µM |  | > 100 µM |  | > 100 µM |  | > 100 µM |  | > 100 µM |  | > 100 µM |  | > 100 µM |  | > 100 µM |  | > 100 µM |  | > 100 µM
CC(=O)C1C(=O)C(=O)N(c2ccccc2N2C(=O)C(=O)C(C(C)=O)C2=O)C1=O (stereo unspecified) |  | > 100 µM |  | > 100 µM |  | > 100 µM |  | > 100 µM |  | > 100 µM |  | > 100 µM |  | > 100 µM |  | > 100 µM |  | > 100 µM |  | > 100 µM
Nc1ncnc2c(C3OC(CO)C(O)C3O)scc12 (stereo unspecified) |  | 0.242 µM and 0.0939 µM |  | 0.0357 µM and 0.075 µM | 0.168 µM | 4.5 µM and 3.08 µM |  | 4.88 µM and 1.56 µM | 0.0179 µM | 3.3 µM |  | 4.56 µM | 1.11 µM |  | 0.269 µM | 4.29 µM | 1.41 µM | 33.3 µM | 0.0186 µM | 4.01 µM and 4.24 µM
c1ccc(-c2nnc(Nc3ccc4c(c3)OCCO4)o2)c(NCc2ccncc2)c1 | < 0.01 µM | 0.86 µM | 0.0191 µM | 0.0856 µM | 0.0756 µM | > 100 µM | 0.033 µM | > 100 µM | 0.0624 µM | 19.1 µM | 0.22 µM | 26.3 µM | 3.97 µM | > 62.4 µM | 0.105 µM | > 100 µM | 0.0696 µM | > 67.6 µM | 1.98 µM | > 81.8 µM
O=C(CC(=O)Nc1ccccc1O)Nc1ccccc1O |  | 24.8 µM |  | > 100 µM |  | 36 µM |  | > 100 µM |  | > 100 µM |  | 27 µM |  | 30 µM |  | > 100 µM |  | 75.8 µM |  | > 100 µM
S=C=NCc1ccccc1 |  | 4.45 µM |  | 25.1 µM |  | 1.65 µM |  | 2.48 µM |  | 8.17 µM |  | 6.74 µM |  | 15.2 µM |  | 28.4 µM |  | 13.5 µM |  | 12.2 µM
CN1CCN(Cc2ccc(NC(=O)c3nc4ccc5[nH]ncc5c4c4c3CCC4)cc2C(F)(F)F)CC1 | 0.981 µM | 2.31 µM | 8.28 µM | 15.5 µM | 0.859 µM | 1.56 µM | 1.25 µM | 3.64 µM | 0.907 µM | 1.7 µM | 0.728 µM | 1.38 µM | 0.99 µM | 2.01 µM | 1.26 µM | 4.84 µM | 7.97 µM | 16.5 µM | 0.884 µM | 1.65 µM
CN(C)CCNC(=O)Cn1ccc(=O)c2ccc([N+](=O)[O-])cc21 |  | > 100 µM |  | > 100 µM |  | > 100 µM |  | > 100 µM |  | > 100 µM |  | > 100 µM |  | > 100 µM |  | > 100 µM |  | > 100 µM |  | > 100 µM
